Columns and labels:
[1] = system: AD→RSC circuit; test: AMPA/NMDA ratio of the AD→RSC circuit after CFC training in PTCHD1 KD mice; format: in vivo, mouse; conditions: PTCHD1 KD mice with hM4Di in AD, low dose of C21 (0.6 mg kg^-1 IP)
Text: (§1) The inventors hypothesized that the increased excitability of AD neurons in KD mice may prevent synaptic strengthening during CFC training, which is necessary for efficient encoding. Specifically, in control mice the excitability of AD neurons would increase during training, which leads to strengthening of the AD→RSC circuit, but in KD mice due to the increased excitability of AD neurons before training there will not be the important training-induced increase in excitability and corresponding synaptic strengthening. By recording from AD neurons before and after CFC training in control and KD groups, the inventors obtained experimental evidence to support this idea (FIG. 14G). Without intending to be bound by theory, these findings support a correlation between neuronal hyperexcitability and impairments in long-term potentiation (Speca et al., 2014: Gruter et al., 2015). The inventors next developed a dose-dependent chemogenetic approach to normalize the excitability of AD neurons in KD mice (FIG. 6D).
(§2) Chemogenetic and optogenetic experiments. For chemogenetic (i.e., hM4Di or hM3Dq) neuronal activity manipulation experiments, we used the second-generation agonist known as compound 21 (C21). This agonist was purchased in a water-soluble dihydrochloride form (Hello Bio). […]

[2] = system: AD neurons of PTCHD1 KD mice; test: AD neuronal excitability rescue ex vivo in PTCHD1 KD mice (chemogenetic normalization); parameters: species or system mouse; conditions: PTCHD1 KD mice with hM4Di in AD; low dose of C21 (0.6 mg kg^-1 IP), 1 hr before slice preparation
Text: as §1, §2

[3] = system: PTCHD1 KD mice; test: Contextual fear conditioning long-term memory recall test in PTCHD1 KD mice; format: in vivo, mouse; conditions: PTCHD1 KD mice with hM4Di in AD; low dose of C21 (0.6 mg kg^-1 IP) before CFC training
Text: as §1
Chemogenetic and optogenetic experiments. For chemogenetic (i.e., hM4Di or hM3Dq) neuronal activity manipulation experiments, we used the second-generation agonist known as compound 21 (C21). […]
Contextual fear conditioning. […] Since optogenetic manipulations (i.e., optic fibers) interfered with automated motion detection, freezing behavior was manually quantified for all experiments.

[4] = system: AD neurons expressing inhibitory DREADDs hM4Di-mCherry; test: C21-induced inhibition of hM4Di-expressing AD neuronal firing, ex vivo slice recording; format: cell-based, mouse; conditions: hM4Di-mCherry expressed in AD, 50 pA step current injection
[5] = system: RSC cFos ensembles; test: cFos activation in RSC during CFC training in PTCHD1 KD mice; format: in vivo, mouse; conditions: PTCHD1 KD mice with hM4Di in AD, low dose of C21 (0.6 mg kg^-1 IP)

Structure (SMILES): Cl.Cl.c1ccc2c(c1)N=C(N1CCNCC1)c1ccccc1N2 [C21]
- training-induced strengthening of the AD→RSC circuit (AMPA/NMDA ratio) [1]: rescued
- excitability of AD neurons [2]: returned to physiological levels
- LTM recall (CFC) [3]: rescued
- AD neuronal firing [4]: reversibly decreased AD neuronal firing
- training-induced CFOS ensemble size in RSC [5]: rescued

From patent US20240158810A1, “COMPOSITIONS AND METHODS FOR AMELIORATING ANTERODORSAL THALAMUS HYPEREXCITABILITY” (The Broad Institute, Inc., priority 2021, published 2024)
